Data: ChEMBL document CHEMBL1136408, “Structure-activity and crystallographic analysis of benzophenone derivatives-the potential anticancer agents” (Bioorg Med Chem Lett, 2003)

Tests used:
KB 3-1 [1] = assay: Compound was tested for cell arrest at Go/G1 phase at 25 nM concentration in KB human cancer cells; assay type: functional; conditions: read-out: Inhibition
KB [2] = assay: Inhibitory concentration against human oral cancer cell line (KB) using tetrazolium dye reduction assay (MTT); assay type: functional, cell-based
KB [3] = assay: Inhibitory concentration against taxol resistant cell line (KBs5) at a concentration of 50 nM using tetrazolium dye reduction assay (MTT); assay type: functional, cell-based; conditions: Homo sapiens
KB [4] = assay: Inhibitory concentration against VP16 resistant cell line (KB-7D) using tetrazolium dye reduction assay (MTT); assay type: functional, cell-based; conditions: Homo sapiens
KB 3-1 [5] = assay: Compound was tested for cell arrest at Go/G1 phase at 100 nM concentration in KB human cancer cells; assay type: functional; conditions: read-out: Inhibition
KB 3-1 [6] = assay: Compound was tested for cell arrest at sub-G1 phase at 25 nM concentration in KB human cancer cells; assay type: functional; conditions: for Percent of cells arrested in sub-G1 phase at 0.025 µM: Homo sapiens, KB 3-1, read-out: Inhibition
KB 3-1 [7] = assay: Compound was tested for cell arrest at S phase at 50 nM concentration in KB human cancer cells; assay type: functional; conditions: read-out: Inhibition
KB 3-1 [8] = assay: Compound was tested for cell arrest at G2/M phase at 25 nM concentration in KB human cancer cells; assay type: functional; conditions: read-out: Inhibition
KB [9] = assay: Inhibitory concentration against vincristine-resistant cell line (KB-Vin 10) using tetrazolium dye reduction assay (MTT); assay type: functional, cell-based; conditions: Homo sapiens
KB 3-1 [10] = assay: Compound was tested for cell arrest at G2/M phase at 50 nM concentration in KB human cancer cells; assay type: functional; conditions: read-out: Inhibition
KB [11] = assay: Inhibitory concentration against camptothecin (CPT) resistant cell line (KB-100) using tetrazolium dye reduction assay (MTT); assay type: functional, cell-based; conditions: Homo sapiens
KB 3-1 [12] = assay: Compound was tested for cell arrest at Go/G1 phase at 50 nM concentration in KB human cancer cells; assay type: functional; conditions: read-out: Inhibition
KB 3-1 [13] = assay: Compound was tested for cell arrest at S phase at 25 nM concentration in KB human cancer cells; assay type: functional; conditions: read-out: Inhibition
CPT30 cell line = assay: Inhibitory concentration against camptothecin (CPT) resistant cell line using tetrazolium dye reduction assay (MTT); assay type: functional, cell-based; conditions: Homo sapiens
KB 3-1 [14] = assay: Compound was tested for cell arrest at G2/M phase at 100 nM concentration in KB human cancer cells; assay type: functional; conditions: read-out: Inhibition
KB 3-1 [15] = assay: Compound was tested for cell arrest at sub-G1 phase at 50 nM concentration in KB human cancer cells; assay type: functional; conditions: read-out: Inhibition
KB 3-1 [16] = assay: Compound was tested for cell arrest at S phase at 100 nM concentration in KB human cancer cells; assay type: functional; conditions: read-out: Inhibition
HONE1 cell line = assay: Inhibitory concentration against human NPC cancer cell line using tetrazolium dye reduction assay (MTT); assay type: functional, cell-based
KB 3-1 [17] = assay: Compound was tested for cell arrest at sub-G1 phase at 100 nM concentration in KB human cancer cells; assay type: functional; conditions: read-out: Inhibition

| SMILES | percent of cells in G0/G1 phase at 0.025 µM (KB 3-1 [1]) | IC50 (KB [2]) | IC50 (KB [3]) | IC50 (KB [4]) | percent cells arrested in G0/G1 phase at 0.1 µM (KB 3-1 [5]) | Percent of cells arrested in sub-G1 phase at 0.025 µM (KB 3-1 [6]) | percent of cells arrested in S phase at 0.05 µM (KB 3-1 [7]) | percent of cells arrested in G2/M phase at 0.025 µM (KB 3-1 [8]) | IC50 (KB [9]) | Cells arrested in G2/M phase (%) at 0.05 µM (KB 3-1 [10]) | IC50 (KB [11]) | % cells in G0/G1 phase at 0.05 µM (KB 3-1 [12]) | Cells arrested in S phase (%) at 0.025 µM (KB 3-1 [13]) | IC50 (CPT30 cell line) | percent of cells arrested in G2/M phase at 0.1 µM (KB 3-1 [14]) | Cells in sub-G1 phase at 0.05 µM (KB 3-1 [15]) | Cells arrested in S phase at 0.1 µM (KB 3-1 [16]) | IC50 (HONE1 cell line) | Percent of cells in sub-G1 phase at 0.1 µM (KB 3-1 [17]) | Percent of cells arrested in sub-G1 phase (KB 3-1 [6]) |
| --- | --- | --- | --- | --- | --- | --- | --- | --- | --- | --- | --- | --- | --- | --- | --- | --- | --- | --- | --- | --- |
| COc1ccc(C(=O)c2cc(OC)c(OC)c(OC)c2)cc1O [PHENSTATIN] | 17.6% | 129 nM | 184 nM | 180 nM | 5.6% | 32.9% | 10.5% | 39.6% | 34.1 nM | 63.9% | 34.8 nM | 7.6% | 9.9% | 37.2 nM | 73.5% | 17.8% | 7.7% | 138 nM | 13% |  |
| CNc1ccc(Cl)cc1C(=O)c1cc(OC)c(OC)c(OC)c1 |  | 6080 nM | 2290 nM | 5410 nM |  |  |  |  | 5850 nM |  | 7160 nM |  |  | 5350 nM |  |  |  | 5140 nM |  |  |
| COc1ccc(C(=O)c2cc(OC)c(OC)c(OC)c2)c(N)c1 |  | 25.8 nM | 25.6 nM | 29.3 nM |  |  |  |  | 45.8 nM |  | 18.9 nM |  |  | 37.3 nM |  |  |  | 35.8 nM |  |  |
| COc1cc(C(=O)c2cc(Cl)ccc2O)cc(OC)c1OC | 61.8% | 5460 nM | 4550 nM | 5450 nM | 45.4% | 5.3% | 15.9% | 18.3% | 8340 nM | 18.9% | 4070 nM | 59.4% | 14.6% | 5000 nM | 16% | 5.7% | 11.8% | 6110 nM | 26.5% |  |
| COc1cc(C(=O)c2cc(Cl)ccc2N)cc(OC)c1OC | 61.7% | 90.4 nM | 71 nM | 104 nM | 5.7% |  | 14.6% | 17.3% | 97.2 nM | 17.3% | 156 nM | 61.7% | 14.3% | 60.3 nM | 73.2% | 6.4% | 7.1% | 64.5 nM | 13.9% | 6.5% |
| COc1ccc(N)c(C(=O)c2cc(OC)c(OC)c(OC)c2)c1 |  | 38.5 nM | 34.7 nM | 38.1 nM |  |  |  |  | 48.6 nM |  | 22.5 nM |  |  | 41 nM |  |  |  | 59.2 nM |  |  |
| COc1ccc(/C=C\c2cc(OC)c(OC)c(OC)c2)cc1O [COMBRETASTATIN A4] | 8.9% | 6.2 nM | 7 nM | 7.9 nM | 5.2% | 18.3% | 10.6% | 61.6% | 9.5 nM | 63.2% | 7.3 nM | 9.3% | 11% | 6.9 nM | 72.3% | 16.8% | 10.6% | 6.5 nM | 11.6% |  |
